Source: patent US6376670B1, “Quinoline-indole antimicrobial agents, uses and compositions related thereto” (Sepracor Inc., priority 1997, dated 2002)
In brackets after ≈: the same amount, converted by molar mass. Read-outs that look alike come from different tables or passages of the source.

Assays:
Experiment in all cases: Determination of MIC values (BHI broth, 96 well microtiter plate)
Format in all cases: cell-based
Streptococcus pneumoniae = details: Streptococcus pneumoniae, read-out: MIC S. pneu
In short: (§1)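 Broth microdilution in Brain-Heart Infusion with twofold dilution series from 25 µg/mL final and a no-compound control. Overnight incubation at 37° C in a CO2 atmosphere; visual growth endpoint gives the MIC.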

[1] = tested on: methicillin-resistant Staphylococcus aureus (MRSA); details: Staphylococcus aureus, MRSA, read-out: MIC MRSA
In short: as §1

[2] = tested on: vancomycin-resistant Enterococcus spp. (VRE); details: Enterococcus, VRE, read-out: MIC VREF
In short: as §1

[3] = BHI broth, 37° C., overnight (about 16 hours)
[4] = 16 h, BHI broth, 37° C., overnight (about 16 hours)
[5] = BHI broth, 37° C., about 16 hours
[6] = 16 h, BHI broth, 37° C., about 16 hours
[7] = S. pneu, BHI broth, overnight 37° C.
[8] = VREF, BHI broth, overnight 37° C.

SMILES | MIC (Streptococcus pneumoniae; [5]) [µg/mL] | MIC [1, 6] [µg/mL] | MIC [2, 6] [µg/mL] | MIC (Streptococcus pneumoniae; [7]) [µg/mL] | MIC ([1]; BHI broth, overnight 37° C.) [µg/mL] | MIC [2, 8] [µg/mL] | further results
Fc1ccc2[nH]cc(-c3ccc4ccccc4n3)c2c1 [Example 181] |  |  |  |  |  |  | MIC (Streptococcus pneumoniae; [3]): < 7 µg/mL; MIC [1, 4]: < 7 µg/mL; MIC [2, 4]: < 25 µg/mL
C[Si](C)(C)CCOC(=O)n1cc(C=O)c2cc(Br)ccc21 [Example 382] |  |  |  |  |  |  | MIC (Streptococcus pneumoniae): > 25 µg/mL; MIC [1]: > 25 µg/mL; MIC [2]: > 25 µg/mL
Cc1ccc2nc(-c3c[nH]c4ccc(O)cc34)ccc2c1 [Example 468] | > 25 | 25 (≈ 91.1 µM) | > 25 |  |  |  | 
NCCNC(=O)c1cc(-c2c[nH]c3ccc(Br)cc23)nc2c(Br)cccc12 [Example 315] |  |  |  | < 7 | < 7 | < 7 | 
COc1ccc2[nH]cc(-c3ccc4cc(Cl)ccc4n3)c2c1 [Example 195] |  |  |  |  |  |  | MIC (Streptococcus pneumoniae; [3]): > 25 µg/mL; MIC [1, 4]: > 25 µg/mL; MIC [2, 4]: > 25 µg/mL
NCc1cccc(CNC(=O)c2cc(-c3c[nH]c4ccc(Br)cc34)nc3c(F)cccc23)c1 [Example 257] |  |  |  | < 7 | < 7 | < 7 | 
NCC1CCCC(CNC(=O)c2cc(-c3c[nH]c4ccc(Br)cc34)nc3ccc(Br)cc23)C1 (stereo not drawn) [Example 123] |  |  |  |  |  |  | MIC (Streptococcus pneumoniae; [3]): < 7 µg/mL; MIC [1, 4]: < 7 µg/mL; MIC [2, 4]: < 7 µg/mL
NC(=O)c1cc(-c2c[nH]c3ccc(Br)cc23)nc2ccc(C#CCN3CCCCC3)cc12 [Example 483] | < 7 | < 7 | < 7 |  |  |  | 
Clc1ccc2c(Cl)cc(-c3c[nH]c4ccc(Cl)cc34)nc2c1 [Example 475] | < 7 | < 7 | < 7 |  |  |  | 
Cn1cc(-c2ccc3cc(Cl)ccc3n2)c2ccc(Cl)cc21 [Example 219] |  |  |  | < 25 | > 25 | > 25 | 
NCc1ccc(CNC(=O)c2cc(-c3c[nH]c4ccc(Br)cc34)nc3cc(Cl)c(C#CCNCCc4ccc(Cl)cc4)cc23)cc1 [Example 274] |  |  |  | < 7 | < 25 | > 25 | 
COc1ccc2nc(-c3c[nH]c4cc(F)ccc34)ccc2c1 [Example 413] | > 25 | > 25 | > 25 |  |  |  | 
Cn1cc(-c2cc(C(=O)NCc3ccc(CN)cc3)c3cc(C#CCN4CCc5ccccc5C4)ccc3n2)c2cc(Br)ccc21 [Example 394] |  |  |  | > 25 | > 25 | > 25 | 
NCc1ccc(CNC(=O)c2cc(-c3c[nH]c4ccc(Cl)cc34)nc3c(Br)cccc23)cc1 [Example 231] |  |  |  | < 7 | < 7 | < 7 | 
O=C(Nc1ccc(O)cc1)c1cc(-c2c[nH]c3ccc(Br)cc23)nc2ccc(I)cc12 [Example 175] |  |  |  |  |  |  | MIC (Streptococcus pneumoniae; [3]): < 7 µg/mL; MIC [1, 4]: < 7 µg/mL; MIC [2, 4]: < 25 µg/mL
CC(=O)Oc1cccc2[nH]cc(-c3ccc4cc(Cl)ccc4n3)c12 [Example 204] |  |  |  | < 7 | < 7 | < 25 | 
Cn1cc(-c2cc(C(=O)NC3CCC(N)CC3)c3cc(I)ccc3n2)c2cc(Br)ccc21 (stereo not drawn) [Example 360] |  |  |  | < 7 | < 7 | < 7 | 
Cc1cc2ccccc2nc1-c1c[nH]c2ccc(Cl)cc12 [Example 531] | < 7 | < 7 | < 7 |  |  |  | 
CN(CC#Cc1ccc2nc(-c3cn(C)c4ccc(Br)cc34)cc(C(=O)NCc3ccc(CN)cc3)c2c1)C1CCCCC1 [Example 397] |  |  |  | < 7 | < 7 | < 7 | 
NCCNC(=O)c1cc(-c2c[nH]c3ccc(Br)cc23)nc2c(Cl)c(Cl)ccc12 [Example 279] |  |  |  | < 7 | < 7 | < 7 | 
C[Si](C)(C)CCOC(=O)n1cc(/C=N/c2ccc(I)cc2)c2cc(Br)ccc21 [Example 383] |  |  |  |  |  |  | MIC (Streptococcus pneumoniae): > 25 µg/mL; MIC [1]: > 25 µg/mL; MIC [2]: > 25 µg/mL
COc1ccc2nc(-c3c[nH]c4ccc(Cl)cc34)ccc2c1 [Example 416] | < 7 | < 7 | > 25 |  |  |  | 
NCc1ccc(CNC(=O)c2cc(-c3c[nH]c4ccc(Br)cc34)nc3ccccc23)cc1 [compound 9] |  |  |  |  |  |  | MIC (Streptococcus pneumoniae; [3]): < 7 µg/mL; MIC [1, 4]: < 7 µg/mL; MIC [2, 4]: < 7 µg/mL
Cc1[nH]c2ccc(Cl)cc2c1-c1ccc2cccc(C)c2n1 [Example 425] | < 7 | < 7 | < 7 |  |  |  | 
Clc1cc(-c2c[nH]c3c(Br)cccc23)nc2ccccc12 [Example 346] |  |  |  | < 25 | < 25 | > 25 | 
COc1ccc2nc(-c3c[nH]c4ccc(OC)cc34)ccc2c1 [Example 430] | < 25 | < 25 | > 25 |  |  |  | 
